Laboratory results published in patent US9808527B2, “Methods and compositions for treating HIV infections” (priority 2006, dated 2017).
Entries after “also recorded” stand apart in the source; their conditions may differ. Read-outs that look alike come from different tables or passages of the source.

Assays:
97ZA003 (C-R5) = test: p24 Gag production inhibition, PHA-PBMs, subtype C isolate 97ZA003; assay type: cell-based, HIV-1
Experimental: (§1) Drug susceptibility assay. The susceptibility of HIV-1LAI, HIV-2EHO, HIV-2ROD, to various drugs and the cytotoxicity of those drugs was determined by using the MTT assay. Briefly, MT-2 cells (2×10^4/mL) were exposed to 100 TCID50s (50% tissue culture infectious doses) of HIV-1LAI, HIV-2EHO, or HIV-2ROD in the presence or absence of various concentrations of drugs in 96-well microculture plates and were incubated at 37° C. for 7 days. After 100 μL of the medium was removed from each well, 3-(4,5-dimethylthiazol-2-yl)-2,5-diphenyltetrazolium bromide (MTT) solution (10 μL, 7.5 mg/mL in phosphate-buffered saline) was added to each well in the plate, followed by incubation at 37° C. for 4 hours. […] All assays were performed in duplicate or triplicate. To determine the sensitivity of HIV-1Ba-L, HIV-1ERS104 pre, and clinical multi-drug-resistant HIV-1 isolates and different subtypes of HIV-1 isolates to drugs, phytohemagglutinin-activated peripheral blood mononuclear cells (PHA-PBMs; 10^6/mL) were exposed to 50 TCID50 (50% tissue infectious dose) of each HIV-1 isolate and cultured in the presence or absence of various concentrations of drugs in 10-fold serial dilutions in 96-well microtiter culture plates. To determine the drug susceptibility of certain laboratory HIV-1 strains (HIV-1NL4-3), MT-4 cells were used as target cells. MT-4 cells (10^5/mL) were exposed to 100 TCID50 of wild type HIV-1NL4-3 and PI-resistant HIV-1NL4-3 in the presence or absence of various concentrations of drugs and were incubated at 37° C. On day 7 of culture, the supernatant was harvested and the amount of p24 Gag protein was determined by using a fully automated chemiluminescent enzyme immunoassay system (Lumipulse F; Fujirebio Inc., Tokyo, Japan) (22). […] All assays were performed in duplicate or triplicate.
(§2) The IC50 values were determined by using PHA-PBMs as target cells and the inhibition of p24 Gag protein production by each drug was used as an endpoint. All assays were conducted in duplicate, and the data shown represent mean values (±1 standard deviations) derived from the results of two or three independent experiments.

92UG029 (A-X4) = test: p24 Gag production inhibition, PHA-PBMs, subtype A isolate 92UG029; assay type: cell-based, HIV-1
Experimental: as §1, §2

Ba-L (B-R5) = test: p24 Gag production inhibition, PHA-PBMs, subtype B Ba-L; assay type: cell-based, HIV-1; settings: Human immunodeficiency virus 1, BAL, read-out: IC50 against Ba-L (B-R5)
Experimental: as §1, §2

HIV-2ROD = test: MTT assay, MT-2 cells exposed to HIV-2ROD; assay type: cell-based
Experimental: as §1
(§3) All assays were conducted in duplicate, and the data shown represent mean values (±1 standard deviations) derived from the results of three independent experiments.

MT-2 cells = test: Cytotoxicity by MTT assay; assay type: cell-based, Human
Experimental: as §1

HIV-2EHO = test: MTT assay, MT-2 cells exposed to HIV-2EHO; assay type: cell-based
Experimental: as §1, §3

HIV-1NL4-3 = test: p24 Gag production inhibition, MT-4 cells, wild-type HIV-1NL4-3; assay type: cell-based
Experimental: as §1

[1] = target: T1, CFP- and YFP-tagged HIV-1 protease subunits (Human immunodeficiency virus type 1 group M subtype B, UniProt P12497); assay type: cell-based; settings: Cos-7 cells; for CFP A/B ratio (CFP fluorescence after/before photobleaching): ratio <1 = dimerization blocked
T1 construct: expressed in transfected cells; host or cells: Cos-7
Experimental: After 72 hr, cultured cells were examined in the FRET-HIV-1 assay system using confocal microscopy Fluoview FV500 confocal laser scanning microscope, and CFP^A/B were determined and plotted. […] The FRET efficiency was determined following acceptor photobleaching as previously described (Bastiaens et al., EMBO 1996; Siegel et al., Science's stke 2000; Firulli et al., Nature genetics, 2005; Szczesna et al., JBC 2003). Dequenching of the donor CFP by selective photobleaching of the acceptor YFP was performed by first obtaining YFP and CFP images at the same focal plane, followed by illuminating for 3 min the same image at wavelength of 488 nm with a laser power set at the maximum intensity to bleach YFP and re-capturing the same CFP and YFP images. The changes in the CFP and YFP fluorescence intensity in the images of selected regions were examined and quantified using Olympus FV500 Image software system. Background values were obtained from the regions where no cells were present and were subtracted from the values for the cells examined in all calculations. For each chimeric protein, the data were obtained from at least three independent experiments. FRET efficiency was determined using the formula: ET=(1−(IDA/ID))×100, where IDA and ID represent the steady-state donor fluorescence in the presence and absence of the acceptor, respectively. Digitized image data obtained from the experiment were prepared for presentation using Photoshop 6.0 (Adobe systems, Mountain View, Calif.). Ratios of intensities of ECFP fluorescence after photobleaching to ECFP fluorescence prior to photobleaching were determined. The ratios of more than 1 indicate that dimerization of CFP- and YFP-tagged protease subunits occurred and those of less than 1 indicate that dimerization was blocked by the test agent.
Generation of FRET-based HIV-1 expression assay. The basic concepts of the intermolecular fluorescence resonance energy transfer (FRET)-based HIV-1-expression assay (FRET-HIV-1 assay) are shown in FIG. 7. Within a plasmid (pHIV-1NL4-3), which encodes a full-length molecular infectious HIV-1 clone, the gene encoding a cyan fluorescent donor protein (CFP) was attached to the downstream end (C-terminus) of the gene encoding an HIV-1 protease subunit through the flexible linker added (five alanines), generating pHIV-1NL4-3/CFP (FIG. 7A). Within the other plasmid (pHIV-1NL4-3), the gene encoding a yellow fluorescent acceptor protein (YFP) was attached to the downstream end of protease-encoding gene in the same manner, generating pHIV-1NL4-3/YFP. Both CFP and YFP were designed to have phenylalanine and proline in the connection with reverse transcriptase so that the protease is cleaved from reverse transcriptase when two subunits dimerize and the dimerized protease acquires enzymatic activity. […] A focused laser beam excitation of CFP (triggered by Helium-Cadmium laser) results in rapid energy transfer to YFP, and most of the fluorescence photons are emitted by YFP (Miyawaki et al. Nature 388(6645):882-887 (1997)). If the dimerization is blocked, the average distance between CFP and YFP becomes larger and the energy transfer rate is decreased and the fraction of photons emitted by YFP is lowered.
In order to interpret the energy transfer efficiency quantitatively, an acceptor photobleaching technique was used, in which the change in CFP emission quenching is measured by comparing the value before and after selectively photobleaching YFP, which prevents problems associated with variable expression levels.

[2] = Human immunodeficiency virus 1, PHA-PBMs, p24 Gag production, read-out: IC50 against 97ZA003 (C-R5)
[3] = Human immunodeficiency virus 1, PHA-PBMs, p24 Gag production, read-out: IC50 against 92UG029 (A-X4)
[4] = Human immunodeficiency virus 2, MT2, MT-2 cells, 100 TCID50, MTT assay, read-out: IC50 against HIV-2ROD
[5] = cytotoxicity, MTT assay, MT-2 cells, read-out: CC50
[6] = Human immunodeficiency virus 2, MT2, MT-2 cells, 100 TCID50, MTT assay, read-out: IC50 against HIV-2EHO
[7] = Human immunodeficiency virus 1, MT4, read-out: IC50 against HIV-1NL4-3 (wild type)
[8] = Human immunodeficiency virus 2, MT2, read-out: IC50 against HIV-2ROD
[9] = Human immunodeficiency virus 2, MT2, read-out: IC50 against HIV-2EHO
[10] = Human immunodeficiency virus 1, MT4, MT-4 cells, 100 TCID50, p24 Gag production, read-out: IC50 against HIV-1NL4-3 (wild type)

SMILES: CC(C)CN(C[C@@H](O)[C@H](Cc1ccccc1)NC(=O)O[C@H]1CCOC1)S(=O)(=O)c1ccc(N)cc1 [APV, Amprenavir]
- IC50 (97ZA003 (C-R5); [2]): 33 ± 5 nM
- IC50 (92UG029 (A-X4); [3]): 46 ± 6 nM
- IC50 (Ba-L (B-R5); PHA-PBMs, p24 Gag production): 25 ± 6 nM
- IC50 (HIV-2ROD; [4]): 570 ± 10 nM
- CC50 (MT-2 cells; [5]): > 100000 nM
- IC50 (HIV-2EHO; [6]): 250 ± 80 nM

SMILES: COC(=O)N[C@H](C(=O)N[C@@H](Cc1ccccc1)[C@@H](O)CN(Cc1ccc(-c2ccccn2)cc1)NC(=O)[C@@H](NC(=O)OC)C(C)(C)C)C(C)(C)C [ATV, Atazanavir]
- IC50 (HIV-1NL4-3; [7]): 4.2 ± 0.4 nM
- IC50 (97ZA003 (C-R5); [2]): 3.4 ± 0.1 nM
- IC50 (92UG029 (A-X4); [3]): 6 ± 2 nM
- IC50 (Ba-L (B-R5); PHA-PBMs, p24 Gag production): 1.3 ± 0.4 nM
- IC50 (HIV-2ROD; [8]): 13 ± 6 nM
- CC50 (MT-2 cells; human, 7 days): 27600 nM
- inhibition of protease dimerization ([1]; 1 μM): None
- CFP A/B ratio (CFP fluorescence after/before photobleaching) ([1]; 1 μM): 1.25±0.12
- inhibition of protease dimerization ([1]; 10 μM): none of these 4 PIs inhibited protease dimerization
- IC50 (HIV-2EHO; [9]): 5 ± 2 nM

SMILES: CC(C)CN(CC(O)C(Cc1ccccc1)NC(=O)OC1COC2OCCC12)S(=O)(=O)c1ccc2c(c1)OCO2 (stereo not drawn) [GRL-98065]
- IC50 (HIV-1NL4-3; [7]): 0.3 ± 0.2 nM
- IC50 (97ZA003 (C-R5); [2]): 0.5 ± 0.1 nM
- IC50 (92UG029 (A-X4); [3]): 0.5 ± 0.2 nM
- IC50 (Ba-L (B-R5); PHA-PBMs, p24 Gag production): 0.2 ± 0.1 nM
- IC50 (HIV-2ROD; [8]): 4.5 ± 0.4 nM
- inhibition of protease dimerization ([1]; 1 μM): dimerization was effectively blocked; also recorded: disrupt protease dimerization
- IC50 (HIV-2EHO; [9]): 3.2 ± 0.7 nM

SMILES: CC(C)(C)NC(=O)[C@@H]1CN(Cc2cccnc2)CCN1C[C@@H](O)C[C@@H](Cc1ccccc1)C(=O)N[C@H]1c2ccccc2C[C@H]1O [IDV, indinavir]
- IC50 (97ZA003 (C-R5); [2]): 37 ± 6 nM
- IC50 (92UG029 (A-X4); [3]): 44 ± 9 nM
- IC50 (Ba-L (B-R5); PHA-PBMs, p24 Gag production): 22 ± 5 nM
- IC50 (HIV-2ROD; [4]): 54 ± 3 nM
- CC50 (MT-2 cells; [5]): 69800 nM
- IC50 (HIV-2EHO; [6]): 24 ± 5 nM

SMILES: Cc1cccc(C)c1OCC(=O)N[C@@H](Cc1ccccc1)[C@@H](O)C[C@H](Cc1ccccc1)NC(=O)[C@H](C(C)C)N1CCCNC1=O [LPV, lopinavir]
- IC50 (HIV-1NL4-3; [10]): 31 ± 9 nM
- IC50 (97ZA003 (C-R5); [2]): 7.3 ± 0.6 nM
- IC50 (92UG029 (A-X4); [3]): 7 ± 1 nM
- IC50 (Ba-L (B-R5); PHA-PBMs, p24 Gag production): 5.3 ± 0.4 nM
- IC50 (HIV-2ROD; [4]): 4.9 ± 0.8 nM
- CC50 (MT-2 cells; [5]): > 100000 nM
- inhibition of protease dimerization ([1]; 1 μM): None
- IC50 (HIV-2EHO; [6]): 2.6 ± 0.8 nM

SMILES: Cc1c(O)cccc1C(=O)N[C@@H](CSc1ccccc1)[C@H](O)CN1C[C@H]2CCCC[C@H]2C[C@H]1C(=O)NC(C)(C)C [NFV, Nelfinavir]
- IC50 (HIV-1NL4-3; [10]): 33 ± 7 nM
- IC50 (97ZA003 (C-R5); [2]): 37 ± 7 nM
- IC50 (92UG029 (A-X4); [3]): 43 ± 6 nM
- IC50 (Ba-L (B-R5); PHA-PBMs, p24 Gag production): 18 ± 4 nM
- IC50 (HIV-2ROD; [4]): 240 ± 9 nM
- CC50 (MT-2 cells; [5]): 8100 nM
- inhibition of protease dimerization ([1]; 1 μM): None
- inhibition of protease dimerization ([1]; 10 μM): none of these 4 PIs inhibited protease dimerization
- IC50 (HIV-2EHO; [6]): 30 ± 6 nM

SMILES: CC(C)c1nc(CN(C)C(=O)N[C@H](C(=O)N[C@@H](Cc2ccccc2)C[C@H](O)[C@H](Cc2ccccc2)NC(=O)OCc2cncs2)C(C)C)cs1 [RTV, ritonavir]
- IC50 (HIV-1NL4-3; [10]): 33 ± 2 nM
- IC50 (97ZA003 (C-R5); [2]): 39 ± 4 nM
- IC50 (92UG029 (A-X4); [3]): 71 ± 11 nM
- IC50 (Ba-L (B-R5); PHA-PBMs, p24 Gag production): 23 ± 6 nM
- IC50 (HIV-2ROD; [4]): 260 ± 10 nM
- inhibition of protease dimerization ([1]; 1 μM): None
- IC50 (HIV-2EHO; [6]): 210 ± 50 nM

SMILES: CC(C)(C)NC(=O)[C@@H]1C[C@@H]2CCCC[C@@H]2CN1C[C@@H](O)[C@H](Cc1ccccc1)NC(=O)[C@H](CC(N)=O)NC(=O)c1ccc2ccccc2n1 [SQV, Saquinavir]
- IC50 (HIV-1NL4-3; [7]): 7 ± 2 nM
- IC50 (97ZA003 (C-R5); Human immunodeficiency virus 1, read-out: IC50 against 97ZA003 (C-R5)): 6.7 ± 0.8 nM
- IC50 (92UG029 (A-X4); Human immunodeficiency virus 1, read-out: IC50 against 92UG029 (A-X4)): 4.8 ± 0.5 nM
- IC50 (Ba-L (B-R5)): 8.3 ± 0.5 nM
- IC50 (HIV-2ROD; [8]): 4.3 ± 0.2 nM
- CC50 (MT-2 cells; [5]): 16400 nM
- inhibition of protease dimerization ([1]; 1 μM): None
- CFP A/B ratio (CFP fluorescence after/before photobleaching) ([1]; 1 μM): 1.11±0.15
- inhibition of protease dimerization ([1]; 10 μM): none of these 4 PIs inhibited protease dimerization
- IC50 (HIV-2EHO; [9]): 3 ± 0.4 nM
